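Step 1: Grow cells in 96-well plates. Step 2: Expose to compound for 48 hours at 5 concentrations. Step 3: Interpolate endpoints linearly; if unreached, use highest concentration. TGI marks complete inhibition of growth.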
Assays:
Assay in all cases: inhibition of tumour cell growth, NCI panel, 48 h
[1] = system: T-47D breast
[2] = system: MCF7 breast
[3] = system: OVCAR-3 ovarian
[4] = system: A549 NSCLC
[5] = system: MOLT-4 leukemia
[6] = system: HL-60(TB) leukemia
[7] = system: CCRF-CEM leukemia
[8] = system: UACC-62 melanoma
[9] = system: SF-268 CNS
[10] = system: A498 renal
[11] = system: SR leukemia
[12] = system: OVCAR-5 ovarian
[13] = system: SK-MEL-28 melanoma
[14] = system: CAKI-1 renal
[15] = system: HOP-62 NSCLC
[16] = system: TK-10 renal
[17] = system: U251 CNS
[18] = system: ACHN renal
[19] = system: DU-145 prostate
[20] = system: HCT-15 colon
[21] = system: RPMI-8226 leukemia
[22] = system: K-562 leukemia
[23] = system: HOP-92 NSCLC
[24] = system: SNB-75 CNS
[25] = system: LOX IMVI melanoma
[26] = system: MDA-MB-435
[27] = system: EKVX NSCLC
[28] = system: IGROV1 ovarian
[29] = system: SF-295 CNS
[30] = system: NCI-H226 lung
[31] = system: SF-539 CNS
[32] = system: UO-31 renal
[33] = system: HS 578T breast
[34] = system: HCC-2998 colon
[35] = system: RXF 393 renal
[36] = system: NCI-H522 lung
[37] = system: OVCAR-8 ovarian
[38] = system: NCI/ADR-RES ovarian
[39] = system: SN12C renal
[40] = system: KM12 colon
[41] = system: HT29 colon
[42] = system: PC-3 prostate
[43] = system: COLO 205 colon
[44] = system: MDA-MB-231 breast
[45] = system: NCI-H460 lung
[46] = system: SK-MEL-5 melanoma
[47] = system: HCT-116 colon
[48] = system: SK-MEL-2 melanoma
[49] = system: SNB-19 CNS
[50] = system: NCI-H23 lung
[51] = system: 786-0 renal
[52] = system: UACC-257 melanoma
[53] = system: MDA-N
[54] = system: BT-549 breast
[55] = system: SK-OV-3 ovarian
[56] = system: SW-620 colon
[57] = system: OVCAR-4 ovarian
[58] = system: M14 melanoma
[59] = system: MALME-3M melanoma
[60] = system: KM20L2 colon
[61] = system: DMS 114 small cell lung
[62] = system: DLD-1 colon
[63] = system: DMS 273 small cell lung
[64] = system: LXFL 529 NSCLC
[65] = system: M19-MEL melanoma
[66] = system: SNB-78 CNS

Cc1cc(/N=C/c2ccc(N(C)C)cc2)n(-c2ccccc2)n1
TGI [1]: 89.5 µM | TGI [2]: > 100 µM | TGI [3]: 82.4 µM | TGI [4]: > 100 µM | TGI [5]: > 100 µM | TGI [6]: > 100 µM | TGI [7]: > 100 µM | TGI [8]: > 100 µM | TGI [9]: > 100 µM | TGI [10]: 84.5 µM | TGI [11]: > 100 µM | TGI [12]: > 100 µM | TGI [13]: > 100 µM | TGI [14]: > 100 µM | TGI [15]: > 100 µM | TGI [16]: > 100 µM | TGI [17]: > 100 µM | TGI [18]: > 100 µM | TGI [19]: > 100 µM | TGI [20]: > 100 µM | TGI [21]: > 100 µM | TGI [22]: > 100 µM | TGI [23]: > 100 µM | TGI [24]: > 100 µM | TGI [25]: > 100 µM | TGI [26]: > 100 µM | TGI [27]: > 100 µM | TGI [28]: > 100 µM | TGI [29]: > 100 µM | TGI [30]: > 100 µM | TGI [31]: > 100 µM | TGI [32]: > 100 µM | TGI [33]: > 100 µM | TGI [34]: 61.7 µM | TGI [35]: > 100 µM | TGI [36]: > 100 µM | TGI [37]: > 100 µM | TGI [38]: > 100 µM | TGI [39]: > 100 µM | TGI [40]: > 100 µM | TGI [41]: > 100 µM | TGI [42]: > 100 µM | TGI [43]: > 100 µM | TGI [44]: > 100 µM | TGI [45]: > 100 µM | TGI [46]: > 100 µM | TGI [47]: > 100 µM | TGI [48]: > 100 µM | TGI [49]: > 100 µM | TGI [50]: > 100 µM | TGI [51]: > 100 µM | TGI [52]: > 100 µM | TGI [53]: > 100 µM | TGI [54]: > 100 µM | TGI [55]: > 100 µM | TGI [56]: > 100 µM | TGI [57]: > 100 µM | TGI [58]: > 100 µM | TGI [59]: > 100 µM

Cc1c2n(c(=O)[nH]c1=O)C1OC(CO)C(N=[N+]=[N-])C1O2 (stereo unspecified)
TGI [3]: > 100 µM | TGI [4]: > 100 µM | TGI [5]: > 100 µM | TGI [6]: > 100 µM | TGI [7]: > 100 µM | TGI [8]: > 100 µM | TGI [9]: > 100 µM | TGI [10]: > 100 µM | TGI [11]: > 100 µM | TGI [13]: > 100 µM | TGI [14]: > 100 µM | TGI [15]: > 100 µM | TGI [16]: > 100 µM | TGI [17]: > 100 µM | TGI [18]: > 100 µM | TGI [20]: > 100 µM | TGI [21]: > 100 µM | TGI [22]: > 100 µM | TGI [23]: > 100 µM | TGI [24]: > 100 µM | TGI [60]: > 100 µM | TGI [61]: > 100 µM | TGI [25]: > 100 µM | TGI [27]: > 100 µM | TGI [28]: > 100 µM | TGI [29]: > 100 µM | TGI [30]: > 100 µM | TGI [31]: > 100 µM | TGI [32]: > 100 µM | TGI [62]: > 100 µM | TGI [35]: > 100 µM | TGI [36]: > 100 µM | TGI [37]: > 100 µM | TGI [39]: > 100 µM | TGI [40]: > 100 µM | TGI [41]: > 100 µM | TGI [43]: > 100 µM | TGI [45]: > 100 µM | TGI [63]: > 100 µM | TGI [46]: > 100 µM | TGI [47]: > 100 µM | TGI [64]: > 100 µM | TGI [48]: > 100 µM | TGI [49]: > 100 µM | TGI [50]: > 100 µM | TGI [51]: > 100 µM | TGI [52]: > 100 µM | TGI [55]: > 100 µM | TGI [65]: > 100 µM | TGI [66]: > 100 µM | TGI [56]: > 100 µM | TGI [57]: > 100 µM
